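Compound exposure: 48 hours, 5 concentrations, 96-well plates. GI50 = concentration required for 50% inhibition of growth.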 Calls of active or inactive are those of the source. Cut-off read from the data, not from the text of the source: active = GI50 up to about 1.1 µM and inactive = higher.
Key:
Experiment in all cases: DTP human tumour cell line panel, 48 h
DLD-1 = test system: DLD-1
KM-20L2 = test system: KM-20L2
MDA-MB-435 = test system: MDA-MB-435
BT-549 = test system: BT-549
Hs-578T = test system: Hs-578T
T47D = test system: T47D
MDA-MB-231 = test system: MDA-MB-231
LXFL 529 = test system: LXFL 529

Measured: GI50

CC(C)[C@](O)(C(=O)OCC1CC[N+]2([O-])CC[C@@H](O)C12)[C@H](C)O (stereo partly drawn)
inactive: DLD-1 > 375 µM | KM-20L2 > 375 µM

CCOC(=O)CN1CCS/C1=N/C#N
inactive: DLD-1 > 100 µM | KM-20L2 > 100 µM

COc1ccc2c(c1)c1c(n2CCN2CCCCC2)-c2cccc(OC)c2CC1
inactive: MDA-MB-435 14.7 µM | BT-549 13.9 µM | Hs-578T 19.5 µM | T47D 16.3 µM | MDA-MB-231 15.6 µM

Oc1nc2c(c(-c3ccccc3Cl)n1)COC/C2=C\c1ccccc1Cl
inactive: MDA-MB-435 > 100 µM | BT-549 > 100 µM | Hs-578T > 100 µM | T47D > 100 µM | MDA-MB-231 > 100 µM

CSCCC(NOC(=O)Cc1ccccc1)P(=O)(O)c1ccccc1 (stereo not drawn)
inactive: MDA-MB-435 > 100 µM | Hs-578T > 100 µM | T47D > 100 µM | MDA-MB-231 > 100 µM

Nc1nc(=O)[nH]cc1F [FLUCYTOSINE]
inactive: MDA-MB-435 > 100 µM | BT-549 > 100 µM | Hs-578T > 100 µM | T47D > 100 µM

O=NN(CCCl)C(=O)Nc1ccc(Cl)c(Cl)c1
inactive: DLD-1 53.5 µM | KM-20L2 25.3 µM

COC1CCC(CO)OO1 (stereo not drawn)
inactive: LXFL 529 8.71 µM | KM-20L2 23.9 µM

CC(=O)NC(CCCCNC(=O)OC(C)(C)C)C(=O)O (stereo not drawn)
inactive: MDA-MB-435 > 100 µM | T47D > 100 µM | MDA-MB-231 > 100 µM

COc1ccc(NC(=S)NNC(=O)c2nsc3ccccc23)cc1
inactive: LXFL 529 39.4 µM | KM-20L2 39.1 µM

COc1ccc(C[C@H](N)C(=O)N2C[C@@H](CO)C[C@@H](n3cnc4c(N(C)C)ncnc43)C2)cc1
inactive: DLD-1 > 100 µM | LXFL 529 > 100 µM | KM-20L2 > 100 µM

CC1=CC(O)C(O)C2(C)C1CC1OC(=O)C(O)C3C(C)C(O)C4(O)OCC13C42 (stereo not drawn)
inactive: DLD-1 135 µM | KM-20L2 22.4 µM

CSC1=C(SC)C(=O)c2cn(C)c(=O)cc2C1=O
inactive: MDA-MB-435 1.79 µM | BT-549 2.14 µM | Hs-578T 7.67 µM | T47D 2.05 µM | MDA-MB-231 1.87 µM

COc1cc2c(oc(=O)c3cc4cc([Si](C)(C)C)oc4c(OC)c32)c2cccc(O)c12
inactive: DLD-1 > 100 µM | LXFL 529 > 100 µM | KM-20L2 > 100 µM

Cc1cn(C2CC(O)C(Cn3cc(Cn4nc(Br)c(=O)[nH]c4=O)nn3)O2)c(=O)[nH]c1=O (stereo not drawn)
inactive: MDA-MB-435 > 100 µM | BT-549 > 100 µM | Hs-578T > 100 µM | T47D > 100 µM | MDA-MB-231 > 100 µM

Cc1ccc(C=C(C(=O)O)C(=O)O)o1
inactive: MDA-MB-435 > 100 µM | BT-549 > 100 µM | Hs-578T > 100 µM | MDA-MB-231 > 100 µM

C[N+](C)(CCO)CCN1c2ccccc2Sc2ccccc21
inactive: MDA-MB-435 > 10 µM | Hs-578T > 10 µM | T47D > 10 µM | MDA-MB-231 > 10 µM

CC(=O)Nc1ccc2oc(=O)c3ccccc3c2c1
inactive: MDA-MB-435 > 100 µM | BT-549 > 100 µM | Hs-578T > 100 µM | T47D > 100 µM

C=C1C(=O)O[C@@H]2/C=C(\C)CC/C=C(\C)CC[C@@]12O
inactive: MDA-MB-435 2.62 µM | BT-549 1.99 µM | Hs-578T 8.79 µM | T47D 1.41 µM | MDA-MB-231 8.65 µM

CCNC(=O)C(C)C1CCC2(C)C=CC(=O)C(C)=C2C1O (stereo not drawn)
inactive: DLD-1 > 100 µM | KM-20L2 > 100 µM

From ChEMBL document CHEMBL1201862, “PubChem BioAssay data set” (2004)
